One assay has as its target T1, EGFR L858R (Homo sapiens, UniProt P00533, L858R).
T1 construct: purchased SignalChem E10-122BG
As to the kind of experiment: Biochemical EGFR inhibition assay (Caliper mobility shift), EGFR L858R. The following applies: biochemical Caliper mobility shift assay, EGFR L858R enzyme; read-out: Enz EGFR L858R IC50. The procedure, abridged:
(§1)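 Apparent IC50 from Caliper separation of phospho-peptide from substrate. Conditions: 2.5 µM 5-FAM peptide, 1.0 mM ATP or ATP Km, pH 7.5 HEPES buffer, room temperature, 10–20% conversion, EDTA stop.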

The next assay deals with T2, EGFR (d746-750) (Homo sapiens, UniProt P00533, DEL746-750).
T2 construct: purchased SignalChem E10-122JG
As to the kind of experiment: Biochemical EGFR inhibition assay (Caliper mobility shift), EGFR (d746-750). The conditions noted are these: biochemical Caliper mobility shift assay, EGFR Exon 19-del enzyme; read-out: Enz EGFR Exon 19-del IC50. The procedure, abridged:
as §1

In assay [1] the target is intracellular phosphorylation of EGFR (Tyr1068) in PC-9 cells (Homo sapiens, UniProt P00533, DEL746-750). As to the kind of experiment: PC-9 pEGFR AlphaLISA assay. The conditions noted are these: 4 hours incubation, read-out: Phos EGFR PC9 IC50. In kind it is cell-based. The procedure, abridged: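 PC-9 cells (EGFR del746-750) in phenol-free DMEM/10% FBS, adhered overnight, then exposed to 10-point 4-fold compound dilutions for 4 h at 37 °C. Lysates assayed for pEGFR Tyr1068 by AlphaLISA SureFire Ultra; IC50 from percent pEGFR inhibition vs log concentration.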
Chain of intracellular phosphorylation of EGFR (Tyr1068) in PC-9 cells (P00533 with tags, fused parts or gaps DEL746-750): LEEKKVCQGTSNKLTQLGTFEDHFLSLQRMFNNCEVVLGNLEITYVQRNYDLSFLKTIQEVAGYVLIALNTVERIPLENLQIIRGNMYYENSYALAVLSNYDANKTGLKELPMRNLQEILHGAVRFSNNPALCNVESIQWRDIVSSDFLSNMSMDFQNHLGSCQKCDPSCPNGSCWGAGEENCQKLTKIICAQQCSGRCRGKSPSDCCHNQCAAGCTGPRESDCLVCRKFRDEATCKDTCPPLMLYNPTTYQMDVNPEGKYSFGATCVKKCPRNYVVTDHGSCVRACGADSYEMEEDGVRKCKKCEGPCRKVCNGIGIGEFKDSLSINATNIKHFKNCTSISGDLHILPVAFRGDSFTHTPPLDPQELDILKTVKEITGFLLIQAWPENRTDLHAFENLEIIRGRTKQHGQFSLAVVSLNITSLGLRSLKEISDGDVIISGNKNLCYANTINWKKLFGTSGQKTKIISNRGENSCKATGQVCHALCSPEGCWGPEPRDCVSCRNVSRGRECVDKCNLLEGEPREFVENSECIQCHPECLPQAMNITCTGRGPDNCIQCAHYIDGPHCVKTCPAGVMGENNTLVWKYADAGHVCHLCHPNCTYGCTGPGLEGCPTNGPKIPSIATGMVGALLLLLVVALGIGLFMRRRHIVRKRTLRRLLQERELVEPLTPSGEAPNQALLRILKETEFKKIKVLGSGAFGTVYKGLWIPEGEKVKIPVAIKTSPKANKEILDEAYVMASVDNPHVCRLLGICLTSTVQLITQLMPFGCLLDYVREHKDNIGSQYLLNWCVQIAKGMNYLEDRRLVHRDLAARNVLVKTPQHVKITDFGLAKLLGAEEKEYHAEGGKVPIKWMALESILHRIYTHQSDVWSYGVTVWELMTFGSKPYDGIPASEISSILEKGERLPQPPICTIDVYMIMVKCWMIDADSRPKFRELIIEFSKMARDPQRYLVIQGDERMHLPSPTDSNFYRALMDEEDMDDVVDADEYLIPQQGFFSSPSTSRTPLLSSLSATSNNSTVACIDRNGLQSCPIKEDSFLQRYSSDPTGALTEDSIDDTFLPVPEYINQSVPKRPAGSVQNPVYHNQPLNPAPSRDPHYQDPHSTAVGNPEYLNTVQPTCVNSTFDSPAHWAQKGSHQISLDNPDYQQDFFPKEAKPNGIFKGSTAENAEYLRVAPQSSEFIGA

T1 sequence (P00533 25-1210 L858R): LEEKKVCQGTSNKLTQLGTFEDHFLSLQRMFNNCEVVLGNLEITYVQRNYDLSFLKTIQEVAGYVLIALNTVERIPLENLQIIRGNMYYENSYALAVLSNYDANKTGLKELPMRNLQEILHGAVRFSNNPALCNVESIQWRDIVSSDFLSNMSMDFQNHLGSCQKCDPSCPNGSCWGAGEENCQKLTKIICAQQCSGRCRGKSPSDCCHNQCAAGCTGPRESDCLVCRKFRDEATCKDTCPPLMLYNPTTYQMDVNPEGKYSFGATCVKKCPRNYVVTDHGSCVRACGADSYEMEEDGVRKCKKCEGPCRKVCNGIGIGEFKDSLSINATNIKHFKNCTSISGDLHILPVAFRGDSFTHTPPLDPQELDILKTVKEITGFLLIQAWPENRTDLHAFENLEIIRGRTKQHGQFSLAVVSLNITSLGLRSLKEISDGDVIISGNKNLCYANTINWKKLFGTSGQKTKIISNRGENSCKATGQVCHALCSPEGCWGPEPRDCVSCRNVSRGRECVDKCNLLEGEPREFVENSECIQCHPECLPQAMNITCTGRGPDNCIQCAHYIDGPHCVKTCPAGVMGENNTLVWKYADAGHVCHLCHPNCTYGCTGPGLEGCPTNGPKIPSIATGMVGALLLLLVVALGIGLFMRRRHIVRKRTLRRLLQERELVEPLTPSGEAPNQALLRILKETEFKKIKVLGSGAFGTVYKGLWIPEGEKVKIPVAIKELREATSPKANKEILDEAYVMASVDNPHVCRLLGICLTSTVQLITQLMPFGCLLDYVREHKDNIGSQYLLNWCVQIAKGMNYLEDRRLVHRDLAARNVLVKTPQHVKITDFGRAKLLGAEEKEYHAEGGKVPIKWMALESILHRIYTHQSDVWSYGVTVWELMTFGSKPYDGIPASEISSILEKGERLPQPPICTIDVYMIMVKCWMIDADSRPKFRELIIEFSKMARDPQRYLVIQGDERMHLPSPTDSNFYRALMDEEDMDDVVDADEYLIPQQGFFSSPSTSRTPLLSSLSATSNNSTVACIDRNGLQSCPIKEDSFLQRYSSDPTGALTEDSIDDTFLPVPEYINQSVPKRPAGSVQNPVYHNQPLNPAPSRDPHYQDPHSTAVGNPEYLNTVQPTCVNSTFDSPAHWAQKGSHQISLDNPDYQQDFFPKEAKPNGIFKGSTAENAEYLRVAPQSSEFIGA
T2 sequence (P00533 with tags, fused parts or gaps DEL746-750 limits assumed): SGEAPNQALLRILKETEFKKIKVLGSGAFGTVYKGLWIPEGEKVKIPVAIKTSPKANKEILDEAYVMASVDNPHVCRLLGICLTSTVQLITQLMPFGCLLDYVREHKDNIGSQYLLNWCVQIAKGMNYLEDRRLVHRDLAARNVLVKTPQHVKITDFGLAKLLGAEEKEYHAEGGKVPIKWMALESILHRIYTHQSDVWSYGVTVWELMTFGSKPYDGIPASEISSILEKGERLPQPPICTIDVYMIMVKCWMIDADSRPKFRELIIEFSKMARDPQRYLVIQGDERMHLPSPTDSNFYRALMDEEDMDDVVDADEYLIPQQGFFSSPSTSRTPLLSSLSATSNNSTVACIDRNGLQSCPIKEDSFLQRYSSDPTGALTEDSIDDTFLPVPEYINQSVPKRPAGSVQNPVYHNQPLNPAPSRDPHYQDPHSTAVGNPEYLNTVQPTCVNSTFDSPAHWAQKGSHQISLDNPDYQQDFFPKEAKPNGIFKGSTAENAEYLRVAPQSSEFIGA

`Cn1cc(-c2cc(OCC(=O)N3CCCCC3)c3c(Nc4ccc5ncsc5c4)ncnc3c2)cn1` [Example 272, 2-((4-(benzo[d]thiazol-6-ylamino)-7-(1-methyl-1H-pyrazol-4-yl)quinazolin-5-yl)oxy)-1-(piperidin-1-yl)ethan-1-one]: the IC50 (on EGFR L858R; at EGFR (d746-750); in assay [1]) was at most 10 nM throughout.

Regarding `Cn1cc(-c2cc(OCC(=O)N3CCOCC3)c3c(Nc4ccc5ncsc5c4)ncnc3c2)cn1` [Example 273, 2-((4-(benzo[d]thiazol-6-ylamino)-7-(1-methyl-1H-pyrazol-4-yl)quinazolin-5-yl)oxy)-1-morpholinoethan-1-one], the IC50 (on EGFR L858R; on EGFR (d746-750); in assay [1]) was at most 10 nM throughout.

Turning to `CN(C)C(=O)COc1cc(-c2cnn(C)c2)cc2ncnc(Nc3ccc4ncsc4c3F)c12` [Example 274, 2-((4-((7-fluorobenzo[d]thiazol-6-yl)amino)-7-(1-methyl-1H-pyrazol-4-yl)quinazolin-5-yl)oxy)-N,N-dimethylacetamide], the IC50 (at EGFR L858R; on EGFR (d746-750); in assay [1]) was at most 10 nM each time.

With `CN1CCN(C(=O)COc2cc(-c3cnn(C)c3)cc3ncnc(Nc4ccc5ncsc5c4F)c23)CC1` [Example 275, 2-((4-((7-fluorobenzo[d]thiazol-6-yl)amino)-7-(1-methyl-1H-pyrazol-4-yl)quinazolin-5-yl)oxy)-1-(4-methylpiperazin-1-yl)ethan-1-one], the results for the IC50 (at EGFR L858R; on EGFR (d746-750); in assay [1]) were at most 10 nM, at most 10 nM and 10.1 to 50 nM, respectively.

As for `Cn1cc(-c2cc(OCC(=O)N3CCOCC3)c3c(Nc4ccc5ncsc5c4F)ncnc3c2)cn1` [Example 276, 2-((4-((7-fluorobenzo[d]thiazol-6-yl)amino)-7-(1-methyl-1H-pyrazol-4-yl)quinazolin-5-yl)oxy)-1-morpholinoethan-1-one], the IC50 (on EGFR L858R; at EGFR (d746-750); in assay [1]) was at most 10 nM each time.

Regarding `Cn1cc(-c2cc(OCC(=O)N3CC4(COC4)C3)c3c(Nc4ccc5ncsc5c4F)ncnc3c2)cn1` [Example 277, 2-((4-((7-fluorobenzo[d]thiazol-6-yl)amino)-7-(1-methyl-1H-pyrazol-4-yl)quinazolin-5-yl)oxy)-1-(2-oxa-6-azaspiro[3.3]heptan-6-yl)ethan-1-one], the half-inhibitory concentration (IC50) (at EGFR L858R; on EGFR (d746-750); in assay [1]) was at most 10 nM throughout.

On to `CC(Oc1cc(-c2cnn(C)c2)cc2ncnc(Nc3ccc4ncsc4c3F)c12)C(=O)N(C)C` (stereo not drawn) [Example 278, 2-((4-((7-fluorobenzo[d]thiazol-6-yl)amino)-7-(1-methyl-1H-pyrazol-4-yl)quinazolin-5-yl)oxy)-N,N-dimethylpropanamide], for which the IC50 (on EGFR L858R; at EGFR (d746-750); in assay [1]) was at most 10 nM throughout.

Turning to `CC(Oc1cc(-c2cnn(C)c2)cc2ncnc(Nc3ccc4ncsc4c3F)c12)C(=O)N1CCOCC1` (stereo not drawn) [Example 281, 2-((4-((7-fluorobenzo[d]thiazol-6-yl)amino)-7-(1-methyl-1H-pyrazol-4-yl)quinazolin-5-yl)oxy)-1-morpholinopropan-1-one], the IC50 (on EGFR L858R; on EGFR (d746-750); in assay [1]) was at most 10 nM throughout.

In the case of `C[C@H](Oc1cc(-c2cnn(C)c2)cc2ncnc(Nc3ccc4ncsc4c3)c12)C(=O)N1CCOCC1` [Example 284, (S)-2-((4-(benzo[d]thiazol-6-ylamino)-7-(1-methyl-1H-pyrazol-4-yl)quinazolin-5-yl)oxy)-1-morpholinopropan-1-one], the IC50 (at EGFR L858R; on EGFR (d746-750); in assay [1]) was at most 10 nM throughout.

Consider `C[C@@H](Oc1cc(-c2cnn(C)c2)cc2ncnc(Nc3ccc4ncsc4c3)c12)C(=O)N1CCOCC1` [Example 285, (R)-2-((4-(benzo[d]thiazol-6-ylamino)-7-(1-methyl-1H-pyrazol-4-yl)quinazolin-5-yl)oxy)-1-morpholinopropan-1-one], for which the half-maximal inhibitory concentration (IC50) (on EGFR L858R; on EGFR (d746-750); in assay [1]) was at most 10 nM throughout.

For `Cn1cc(-c2cc(OC(C)(C)C(=O)N3CCOCC3)c3c(Nc4ccc5ncsc5c4)ncnc3c2)cn1` [Example 286, 2-((4-(benzo[d]thiazol-6-ylamino)-7-(1-methyl-1H-pyrazol-4-yl)quinazolin-5-yl)oxy)-2-methyl-1-morpholinopropan-1-one], the IC50 on EGFR L858R was 10.1 to 50 nM; at EGFR (d746-750) it was at most 10 nM; in assay [1], 10.1 to 50 nM.

As for `CC(Oc1cc(N2CCN(C)C3CC32)cc2ncnc(Nc3ccc4ncsc4c3)c12)C1COC1` [Example 300, N-(7-((1R,6S)-5-methyl-2,5-diazabicyclo[4.1.0]heptan-2-yl)-5-((R)-1-(oxetan-3-yl)ethoxy)quinazolin-4-yl)benzo[d]thiazol-6-amine, OR N-(7-((1S,6R)-5-methyl-2,5-diazabicyclo[4.1.0]heptan-2-yl)-5-((R)-1-(oxetan-3-yl)ethoxy)quinazolin-4-yl)benzo[d]thiazol-6-amine], the IC50 on EGFR L858R was 10.1 to 50 nM; on EGFR (d746-750) it was at most 10 nM; in assay [1] it was at most 10 nM.

With `COCCN1CCC(Oc2cc(-c3cn(C)nc3OC)cc3ncnc(Nc4ccc5ncsc5c4)c23)CC1` [Example 305, N-(7-(3-methoxy-1-methyl-1H-pyrazol-4-yl)-5-((1-(2-methoxyethyl)piperidin-4-yl)oxy)quinazolin-4-yl)benzo[d]thiazol-6-amine], the IC50 (at EGFR L858R; at EGFR (d746-750); in assay [1]) was at most 10 nM throughout.

As for `COc1nn(C)cc1-c1cc(OC2CCN(C3COC3)CC2)c2c(Nc3ccc4ncsc4c3)ncnc2c1` [Example 306, N-(7-(3-methoxy-1-methyl-1H-pyrazol-4-yl)-5-((1-(oxetan-3-yl)piperidin-4-yl)oxy)quinazolin-4-yl)benzo[d]thiazol-6-amine], the IC50 (on EGFR L858R; at EGFR (d746-750); in assay [1]) was at most 10 nM each time.

Turning to `CCn1cc(-c2cc(OC3CCN(C4COC4)CC3)c3c(Nc4ccc5ncsc5c4)ncnc3c2)cn1` [Example 307, N-(7-(1-ethyl-1H-pyrazol-4-yl)-5-((1-(oxetan-3-yl)piperidin-4-yl)oxy)quinazolin-4-yl)benzo[d]thiazol-6-amine], the IC50 (on EGFR L858R; on EGFR (d746-750); in assay [1]) was at most 10 nM each time.

Take `COCCN1CCC(Oc2cc(-c3nn(C)cc3OC)cc3ncnc(Nc4ccc5ncsc5c4)c23)CC1` [Example 308, N-(7-(4-methoxy-1-methyl-1H-pyrazol-3-yl)-5-((1-(2-methoxyethyl)piperidin-4-yl)oxy)quinazolin-4-yl)benzo[d]thiazol-6-amine]: the values for the IC50 (on EGFR L858R; on EGFR (d746-750); in assay [1]) were 10.1 to 50 nM, at most 10 nM and 10.1 to 50 nM, respectively.

As to `CCN1CCC(Oc2cc(-c3cnn(C)c3)cc3ncnc(Nc4ccc5ncsc5c4)c23)CC1` [Example 309, N-(5-((1-ethylpiperidin-4-yl)oxy)-7-(1-methyl-1H-pyrazol-4-yl)quinazolin-4-yl)benzo[d]thiazol-6-amine], the IC50 (at EGFR L858R; at EGFR (d746-750); in assay [1]) was at most 10 nM each time.

`Cn1cc(-c2cc(OC3CCN(CC(F)F)CC3)c3c(Nc4ccc5ncsc5c4F)ncnc3c2)cn1` [Example 310, N-(5-((1-(2,2-difluoroethyl)piperidin-4-yl)oxy)-7-(1-methyl-1H-pyrazol-4-yl)quinazolin-4-yl)-7-fluorobenzo[d]thiazol-6-amine]: the IC50 (at EGFR L858R; at EGFR (d746-750); in assay [1]) was at most 10 nM in each case.

In the case of `Cn1cc(-c2cc(OC3CCN(CC(F)F)CC3)c3c(Nc4ccc5ncsc5c4)ncnc3c2)cn1` [Example 311, N-(5-((1-(2,2-difluoroethyl)piperidin-4-yl)oxy)-7-(1-methyl-1H-pyrazol-4-yl)quinazolin-4-yl)benzo[d]thiazol-6-amine], the IC50 (at EGFR L858R; on EGFR (d746-750); in assay [1]) was at most 10 nM throughout.

Regarding `Cn1cc(-c2cc(OC3CCN(CCO)CC3)c3c(Nc4ccc5ncsc5c4)ncnc3c2)cn1` [Example 312, 2-(4-((4-(benzo[d]thiazol-6-ylamino)-7-(1-methyl-1H-pyrazol-4-yl)quinazolin-5-yl)oxy)piperidin-1-yl)ethan-1-ol], the IC50 on EGFR L858R is at most 10 nM; on EGFR (d746-750), at most 10 nM; in assay [1] it was 10.1 to 50 nM.

Turning to `COCCN1CCC(Oc2cc(-c3cnn(C)c3)cc3ncnc(Nc4ccc5ncsc5c4)c23)CC1` [Example 313, N-(5-((1-(2-methoxyethyl)piperidin-4-yl)oxy)-7-(1-methyl-1H-pyrazol-4-yl)quinazolin-4-yl)benzo[d]thiazol-6-amine], the IC50 was at most 10 nM on EGFR L858R, at most 10 nM at EGFR (d746-750) and 10.1 to 50 nM in assay [1].

Take `COc1cn(C)nc1-c1cc(OC2CCN(C)CC2)c2c(Nc3ccc4ncsc4c3)ncnc2c1` [Example 314, N-(7-(4-methoxy-1-methyl-1H-pyrazol-3-yl)-5-((1-methylpiperidin-4-yl)oxy)quinazolin-4-yl)benzo[d]thiazol-6-amine]: the IC50 (at EGFR L858R; on EGFR (d746-750); in assay [1]) was at most 10 nM in each case.
